# Reference: patent US20070128217A1 (priority 2003, published 2007)
# How the values were obtained:
# [1] = test system: antibodies in sera from SARS patients (sera 1a, 1b, 2, 6, 37, 62, London, SARS-yellow, SARS-green); type: binding, human; set-up: Binding of serum 6 to linear peptides of protein X1 of SARS-CoV Urbani / Binding of serum 37 to linear peptides of protein X1 of SARS-CoV Urbani / Binding of serum 6 to looped/cyclic peptide (PEPSCAN-ELISA) / Binding of serum 37 to looped/cyclic peptide (PEPSCAN-ELISA) / Binding of serum 37 to looped/cyclic peptides of protein X1 of SARS-CoV Urbani / Binding of serum 6 to linear peptides of protein X2 / Binding of serum 37 to linear peptides of protein X2 / Binding of serum 37 to looped/cyclic peptides of protein X2 of SARS-CoV Urbani / Binding of serum 6 to linear peptides of protein M of SARS-CoV Urbani / Binding of serum 37 to linear peptides of protein M of SARS-CoV Urbani / Binding of serum 6 to looped/cyclic peptides of protein M of SARS-CoV Urbani / Binding of serum 37 to looped/cyclic peptides of protein M of SARS-CoV Urbani / Binding of serum 6 to linear peptides of protein X3 of SARS-CoV Urbani / Binding of serum 37 to linear peptides of protein X3 of SARS-CoV Urbani / Binding of serum 37 to looped/cyclic peptides of protein X3 of SARS-CoV Urbani / Binding of serum 6 to linear peptides of protein X4 of SARS-CoV Urbani / Binding of serum 37 to linear peptides of protein X4 of SARS-CoV Urbani / Binding of serum 37 to looped/cyclic peptides of protein X4 of SARS-CoV Urbani / Binding of serum 6 to linear peptides of protein X5 of SARS-CoV Urbani / Binding of serum 37 to linear peptides of protein X5 of SARS-CoV Urbani / Binding of serum 37 to looped/cyclic peptides of protein X5 of SARS-CoV Urbani / Binding of serum 6 to linear peptides of protein N of SARS-CoV Urbani / Binding of serum 37 to linear peptides of protein N of SARS-CoV Urbani / Binding of serum 6 to linear peptide (PEPSCAN-ELISA) / Binding of serum 1a to looped/cyclic peptides of protein N of SARS-CoV Urbani / Binding of serum 1b to looped/cyclic peptides of protein N of SARS-CoV Urbani / Binding of serum 2 to looped/cyclic peptides of protein N of SARS-CoV Urbani / Binding of serum 6 to looped/cyclic peptides of protein N of SARS-CoV Urbani / Binding of serum 37 to looped/cyclic peptides of protein N of SARS-CoV Urbani / Binding of serum 62 to looped/cyclic peptides of protein N of SARS-CoV Urbani / Binding of serum London to looped/cyclic peptides of protein N of SARS-CoV Urbani / Binding of serum SARS-green to looped/cyclic peptides of protein N of SARS-CoV Urbani: unit not given here
# [2] = test system: control sera (pooled serum of ten healthy LUMC hospital workers; commercial negative donor pooled serum from the Dutch bloodbank); type: binding, human; set-up: Binding of Control serum LUMC to linear peptides / Binding of Control serum Blood-bank to linear peptides / Binding of Control serum LUMC to looped peptides / Binding of Control Serum Blood-Bank to Looped peptides / Binding of Control serum LUMC to linear peptides of the protein M of SARS-CoV Urbani / Binding of Control serum Blood-bank to linear peptides of the protein M of SARS-CoV Urbani / Binding of Control serum LUMC to looped peptides of the protein M of SARS-CoV Urbani / Binding of Control Serum Blood-Bank to Looped peptides of the protein M of SARS-CoV Urbani: unit not given here
# [3] = test system: rabbit serum obtained by immunizing a rabbit with the SARS-CoV strain Frankfurt 1; type: binding; set-up: Binding of a rabbit serum to linear peptides / Binding of a rabbit serum to looped peptides / Rabbit serum linear peptides / Rabbit serum looped peptides / Binding of a rabbit serum to linear peptides of protein N of SARS-CoV Urbani (Rabbit serum linear peptides) / Binding of a rabbit serum to looped/cyclic peptides of protein N of SARS-CoV Urbani (Rabbit serum looped peptides): unit not given here
sequence,measurement,setting,value
SRTLSYYKLGASQRV,Binding of serum 1a to linear peptides of protein M of SARS-CoV Urbani,[1],0.8
same,Binding of serum 1a to looped/cyclic peptides of protein M of SARS-CoV Urbani,[1],0.9
same,Binding of serum 1b to linear peptides of protein M of SARS-CoV Urbani,[1],0.5
same,Binding of serum 1b to looped/cyclic peptides of protein M of SARS-CoV Urbani,[1],0.3
same,Binding of serum 2 to linear peptides of protein M of SARS-CoV Urbani,[1],0.8
same,Binding of serum 2 to looped/cyclic peptides of protein M of SARS-CoV Urbani,[1],0.7
same,Binding of serum 6 to linear peptides of protein M of SARS-CoV Urbani,[1],0.4
same,Binding of serum 6 to looped/cyclic peptides of protein M of SARS-CoV Urbani,[1],0.9
same,Binding of serum 37 to linear peptides of protein M of SARS-CoV Urbani,[1],0.8
same,Binding of serum 37 to looped/cyclic peptides of protein M of SARS-CoV Urbani,[1],0.8
same,Binding of serum 62 to linear peptides of protein M of SARS-CoV Urbani,[1],0.8
same,Binding of serum 62 to looped/cyclic peptides of protein M of SARS-CoV Urbani,[1],0.7
same,Binding of serum London to linear peptides of protein M of SARS-CoV Urbani,[1],0.3
same,Binding of serum London to looped/cyclic peptides of protein M of SARS-CoV Urbani,[1],0.3
same,Binding of serum SARS-green to linear peptides of protein M of SARS-CoV Urbani,[1],0.2
same,Binding of serum SARS-green to looped/cyclic peptides of protein M of SARS-CoV Urbani,[1],0.4
same,Binding of serum SARS-yellow to linear peptides of protein M of SARS-CoV Urbani,[1],0.1
same,Binding of serum SARS-yellow to looped/cyclic peptides of protein M of SARS-CoV Urbani,[1],0.8
same,Binding of Control Serum Blood-Bank to Looped peptides of the protein M of SARS-CoV Urbani,[2],0.6
same,Binding of Control serum Blood-bank to linear peptides of the protein M of SARS-CoV Urbani,[2],0.9
same,Binding of Control serum LUMC to linear peptides of the protein M of SARS-CoV Urbani,[2],0.5
same,Binding of Control serum LUMC to looped peptides of the protein M of SARS-CoV Urbani,[2],0.8
same,Rabbit serum linear peptides,[3],0.6
same,Rabbit serum looped peptides,[3],0.6
SSLTSLLKTHRMCKY,Binding of serum 1a to linear peptides of protein X2,[1],0.6
same,Binding of serum 1a to looped/cyclic peptides of protein X2 of SARS-CoV Urbani,[1],0.5
same,Binding of serum 1b to linear peptides of protein X2,[1],0.5
same,Binding of serum 1b to looped/cyclic peptides of protein X2 of SARS-CoV Urbani,[1],0.5
same,Binding of serum 2 to linear peptides of protein X2,[1],0.4
same,Binding of serum 2 to looped/cyclic peptides of protein X2 of SARS-CoV Urbani,[1],0.4
same,Binding of serum 6 to linear peptides of protein X2,[1],0.5
same,Binding of serum 6 to looped/cyclic peptides of protein X2 of SARS-CoV Urbani,[1],0.3
same,Binding of serum 37 to linear peptides of protein X2,[1],0.5
same,Binding of serum 37 to looped/cyclic peptides of protein X2 of SARS-CoV Urbani,[1],0.3
same,Binding of serum 62 to linear peptides of protein X2,[1],0.6
same,Binding of serum 62 to looped/cyclic peptides of protein X2 of SARS-CoV Urbani,[1],0.6
same,Binding of serum London to linear peptides of protein X2,[1],0.4
same,Binding of serum London to looped/cyclic peptides of protein X2 of SARS-CoV Urbani,[1],0.2
same,Binding of serum SARS-green to linear peptides of protein X2,[1],0.5
same,Binding of serum SARS-green to looped/cyclic peptides of protein X2 of SARS-CoV Urbani,[1],0.2
same,Binding of serum SARS-yellow to linear peptides of protein X2,[1],0.3
same,Binding of serum SARS-yellow to looped/cyclic peptides of protein X2 of SARS-CoV Urbani,[1],0.6
same,Binding of Control Serum Blood-Bank to Looped peptides,[2],0.7
same,Binding of Control serum Blood-bank to linear peptides,[2],0.8
same,Binding of Control serum LUMC to linear peptides,[2],0.4
same,Binding of Control serum LUMC to looped peptides,[2],0.6
same,Binding of a rabbit serum to linear peptides,[3],0.3
same,Binding of a rabbit serum to looped peptides,[3],0.5
SSSLTSLLKTHRMCK,Binding of serum 1a to linear peptides of protein X2,[1],0.6
same,Binding of serum 1a to looped/cyclic peptides of protein X2 of SARS-CoV Urbani,[1],0.3
same,Binding of serum 1b to linear peptides of protein X2,[1],0.5
same,Binding of serum 1b to looped/cyclic peptides of protein X2 of SARS-CoV Urbani,[1],0.4
same,Binding of serum 2 to linear peptides of protein X2,[1],0.4
same,Binding of serum 2 to looped/cyclic peptides of protein X2 of SARS-CoV Urbani,[1],0.1
same,Binding of serum 6 to linear peptides of protein X2,[1],0.8
same,Binding of serum 6 to looped/cyclic peptides of protein X2 of SARS-CoV Urbani,[1],0.1
same,Binding of serum 37 to linear peptides of protein X2,[1],0.6
same,Binding of serum 37 to looped/cyclic peptides of protein X2 of SARS-CoV Urbani,[1],0.2
same,Binding of serum 62 to linear peptides of protein X2,[1],0.7
same,Binding of serum 62 to looped/cyclic peptides of protein X2 of SARS-CoV Urbani,[1],0.3
same,Binding of serum London to linear peptides of protein X2,[1],0.6
same,Binding of serum London to looped/cyclic peptides of protein X2 of SARS-CoV Urbani,[1],0.1
same,Binding of serum SARS-green to linear peptides of protein X2,[1],0.6
same,Binding of serum SARS-green to looped/cyclic peptides of protein X2 of SARS-CoV Urbani,[1],0.3
same,Binding of serum SARS-yellow to linear peptides of protein X2,[1],0.2
same,Binding of serum SARS-yellow to looped/cyclic peptides of protein X2 of SARS-CoV Urbani,[1],0.5
same,Binding of Control Serum Blood-Bank to Looped peptides,[2],0.4
same,Binding of Control serum Blood-bank to linear peptides,[2],1.0
same,Binding of Control serum LUMC to linear peptides,[2],0.7
same,Binding of Control serum LUMC to looped peptides,[2],0.4
same,Binding of a rabbit serum to linear peptides,[3],0.3
same,Binding of a rabbit serum to looped peptides,[3],0.2
STALQELLIQQWIQF,Binding of serum 1a to linear peptides of protein X2,[1],0.6
same,Binding of serum 1a to looped/cyclic peptides of protein X2 of SARS-CoV Urbani,[1],0.6
same,Binding of serum 1b to linear peptides of protein X2,[1],0.4
same,Binding of serum 1b to looped/cyclic peptides of protein X2 of SARS-CoV Urbani,[1],0.5
same,Binding of serum 2 to linear peptides of protein X2,[1],0.3
same,Binding of serum 2 to looped/cyclic peptides of protein X2 of SARS-CoV Urbani,[1],0.4
same,Binding of serum 6 to linear peptides of protein X2,[1],0.3
same,Binding of serum 6 to looped/cyclic peptides of protein X2 of SARS-CoV Urbani,[1],0.2
same,Binding of serum 37 to linear peptides of protein X2,[1],0.5
same,Binding of serum 37 to looped/cyclic peptides of protein X2 of SARS-CoV Urbani,[1],0.4
same,Binding of serum 62 to linear peptides of protein X2,[1],0.6
same,Binding of serum 62 to looped/cyclic peptides of protein X2 of SARS-CoV Urbani,[1],0.6
same,Binding of serum London to linear peptides of protein X2,[1],0.4
same,Binding of serum London to looped/cyclic peptides of protein X2 of SARS-CoV Urbani,[1],0.2
same,Binding of serum SARS-green to linear peptides of protein X2,[1],0.5
same,Binding of serum SARS-green to looped/cyclic peptides of protein X2 of SARS-CoV Urbani,[1],0.3
same,Binding of serum SARS-yellow to linear peptides of protein X2,[1],0.3
same,Binding of serum SARS-yellow to looped/cyclic peptides of protein X2 of SARS-CoV Urbani,[1],0.5
same,Binding of Control Serum Blood-Bank to Looped peptides,[2],0.6
same,Binding of Control serum Blood-bank to linear peptides,[2],0.6
same,Binding of Control serum LUMC to linear peptides,[2],0.3
same,Binding of Control serum LUMC to looped peptides,[2],0.7
same,Binding of a rabbit serum to linear peptides,[3],0.3
same,Binding of a rabbit serum to looped peptides,[3],0.4
